# In patent US20110224297A1, “Methods of administering prostratin and structural analogs thereof” (priority 2008, published 2011):
# System: Fisher rats
# Assay: Single-dose range-finding study in rats
# Type: in vivo
# Details: for mortality (died on Day 1 or Day 2): male Fisher rats
# Procedure: A single bolus dose of prostratin (0, 0.05, 0.1, 0.2, 0.4, and 0.8 mg/kg which correspond to 0, 0.3, 0.6, 1.2, 2.4, and 4.8 mg/m^2) was administered to Fisher rats (3 males/group) to determine the maximally tolerated dose and relative drug toxicity. […] Clinical signs of toxicity included decreased activity, prostration, tremors, and altered respiratory rate (decreased in some cases, increased in others). […] In the 0.4 mg/kg dose group, ALT and AST serum levels were 2- and 3-fold higher, respectively, than group mean ALT and AST values for control rats, and potassium level was decreased in 61% of the value obtained for control group animals. […] The Maximum Tolerated Dose (MTD) in rats is between 0.2-0.4 mg/kg dose of prostratin.
smiles,measurement,setting,value
"CC(=O)O[C@@]12C[C@@H](C)[C@@]3(O)[C@@H](C=C(CO)C[C@]4(O)C(=O)C(C)=C[C@@H]34)[C@@H]1C2(C)C [prostratin, 12-deoxyphorbol 13-acetate]",albumin (ALB) level relative to control,0.2 mg/kg dose group,88%
same,ALT serum level versus control,0.4 mg/kg dose group,2 fold
same,AST serum level versus control,0.4 mg/kg dose group,3 fold
same,albumin (ALB) level relative to control,0.4 mg/kg dose group,76%
same,potassium level relative to control,0.4 mg/kg dose group,61%
same,reversibility of adverse events,"PLT, ALT, AST, ALB within normal range by day 8",reversible
same,increase in neutrophile counts,"day 3, 0.4 mg/kg dose group",1.7 fold
same,decrease in platelet (PLT) counts compared to control,"day 3, 0.4 and 0.2 mg/kg dose groups",62-68%
same,mortality (died on Day 1 or Day 2),single bolus 0.4 mg/kg,two of the three
same,mortality (died on Day 1 or Day 2),single bolus 0.8 mg/kg,3/3
